ChEMBL document CHEMBL4219171, “Synthesis and investigations into the anticancer and antibacterial activity studies of β-carboline chalcones and their bromide salts” (Bioorg Med Chem Lett, 2018)
In brackets after ≈: the same amount, converted by molar mass. Activity calls are given as the source filed them. The rule behind the calls is not given here.

Legend:
[1] = tested on: LNCaP C4-2; assay: Cytotoxicity against human C4-2 cells after 48 hrs by MTT assay; type: functional, cell-based; conditions: LNCaP C4-2, 48 h
[2] = tested on: PC-3; assay: Cytotoxicity against human PC3 cells after 48 hrs by MTT assay; type: functional, cell-based; conditions: PC-3, 48 h
[3] = tested on: NIH3T3; assay: Cytotoxicity against mouse NIH/3T3 cells after 48 hrs by MTT assay; type: cell-based; conditions: NIH3T3, 48 h
[4] = tested on: Bacillus subtilis; assay: Antibacterial activity against Bacillus subtilis MTCC 121 assessed as zone of inhibition measured after 18 hrs by disc diffusion method; type: functional
[5] = tested on: BXPC-3; assay: Cytotoxicity against human BxPC3 cells after 48 hrs by MTT assay; type: functional, cell-based; conditions: BXPC-3, 48 h
[6] = tested on: MDA-MB-231; assay: Cytotoxicity against human MDA-MB-231 cells after 48 hrs by MTT assay; type: functional, cell-based; conditions: MDA-MB-231, 48 h
[7] = tested on: Bacillus subtilis; assay: Antibacterial activity against Bacillus subtilis MTCC 121 after 24 hrs by broth microdilution assay; type: functional; conditions: MTCC 121, 24 h
[8] = tested on: HEK-293T; assay: Cytotoxicity against human HEK293T cells after 48 hrs by MTT assay; type: cell-based
[9] = tested on: HeLa; assay: Cytotoxicity against human HeLa cells after 48 hrs by MTT assay; type: functional, cell-based
[10] = tested on: Staphylococcus aureus; assay: Antibacterial activity against Staphylococcus aureus MTCC 96 assessed as zone of inhibition measured after 18 hrs by disc diffusion method; type: functional
[11] = tested on: Enterobacter cloacae; assay: Antibacterial activity against Enterobacter cloacae NAIMCC-B-02025 assessed as zone of inhibition measured after 18 hrs by disc diffusion method; type: functional
[12] = tested on: Pseudomonas aeruginosa; assay: Antibacterial activity against Pseudomonas aeruginosa MTCC 424 assessed as zone of inhibition measured after 18 hrs by disc diffusion method; type: functional
[13] = tested on: Staphylococcus aureus; assay: Antibacterial activity against Staphylococcus aureus MTCC 96 after 24 hrs by broth microdilution assay; type: functional; conditions: MTCC 96, 24 h
[14] = tested on: Escherichia coli; assay: Antibacterial activity against Escherichia coli MTCC 1652 assessed as zone of inhibition measured after 18 hrs by disc diffusion method; type: functional
[15] = tested on: Enterobacter cloacae; assay: Antibacterial activity against Enterobacter cloacae NAIMCC-B-02025 after 24 hrs by broth microdilution assay; type: functional; conditions: NAIMCC-B-02025, 24 h
[16] = tested on: MDA-MB-231; assay: Induction of apoptosis in human MDA-MB-231 cells assessed as morphological changes after 24 hrs by acridine orange/ethidium bromide-dual staining based fluorescence microscopic method; type: functional, cell-based

Row | Structure (SMILES) | IC50 [1] [µM] | IC50 [2] [µM] | IC50 [3] [µM] | inhibition zone (IZ) [4] [mm] | IC50 [5] [µM] | IC50 [6] [µM] | MIC [7] [µM] | IC50 [8] [µM] | IC50 [9] [µM] | inhibition zone (IZ) [10] [mm] | inhibition zone (IZ) [11] [mm] | inhibition zone (IZ) [12] [mm] | MIC [13] [µM] | inhibition zone (IZ) [14] [mm] | MIC [15] [µM] | Activity [16]
1 | O=C(/C=C/c1ccccc1)c1nccc2c1[nH]c1ccccc12 | 80.2 | 93 | > 100 | 9 | 72 | 71.1 | 838 (≈ 250 µg/mL) | 65.6 | 82.4 |  |  |  |  |  |  | 
2 | CCCC[n+]1ccc2c([nH]c3ccccc32)c1C(=O)/C=C/c1ccc2c(c1)OCO2.[Br-] | > 100 | > 100 | > 100 | 7 | > 100 | > 100 |  | > 100 | > 100 | 9 |  |  |  |  |  | 
3 | C#CC[n+]1ccc2c([nH]c3ccccc32)c1C(=O)/C=C/c1ccc2c(c1)OCO2.[Br-] | 24.4 | 29.6 | 72.1 | 7 | 30.1 | 21.2 |  | 19.1 | 25.3 | 9 | 6 | 7 |  |  |  | 
4 | COc1ccc(/C=C/C(=O)c2c3[nH]c4ccccc4c3cc[n+]2Cc2ccccc2)cc1.[Br-] | 65.5 | 88.3 | 85.3 | 8 | 50.2 | 52.2 | 875 | 41.4 | 60.1 | 15 | 8 |  | 440 | 8 | 874 | 
5 | CCCC[n+]1ccc2c([nH]c3ccccc32)c1C(=O)/C=C/c1ccc(OC)cc1.[Br-] | 38.8 | 65 | 74.6 |  | 50.8 | 40.9 |  | 35.2 | 45 | 9 |  |  |  |  |  | 
6 | O=C(/C=C/c1ccc(C(F)(F)F)cc1)c1nccc2c1[nH]c1ccccc12 |  |  |  |  |  |  |  |  |  | 11 | 11 |  | 710 (≈ 260 µg/mL) | 10 | 726 (≈ 266 µg/mL) | 
7 | C#CC[n+]1ccc2c([nH]c3ccccc32)c1C(=O)/C=C/c1ccc(OC)cc1.[Br-] | > 100 | > 100 | > 100 |  | > 100 | > 100 |  | > 100 | > 100 | 9 | 6 | 7 |  |  |  | 
8 | C#CC[n+]1ccc2c([nH]c3ccccc32)c1C(=O)/C=C/c1cc(OC)c(OC)c(OC)c1.[Br-] | 65.5 | 61 | 88 |  | 72 | 59.6 |  | 55.1 | 70.1 | 9 | 13 | 9 |  |  | 590 | 
9 | CN(C)c1ccc(/C=C/C(=O)c2nccc3c2[nH]c2ccccc23)cc1 |  |  |  | 8 |  |  | 870 (≈ 297 µg/mL) |  |  | 11 | 8 |  | 715 (≈ 244 µg/mL) | 8 | 880 (≈ 300 µg/mL) | 
10 | O=C(/C=C/c1ccc2c(c1)OCO2)c1nccc2c1[nH]c1ccccc12 | > 100 | > 100 | > 100 |  | > 100 | > 100 |  | > 100 | > 100 |  |  |  |  |  |  | 
11 | COc1cc(/C=C/C(=O)c2nccc3c2[nH]c2ccccc23)cc(OC)c1OC | 71.6 | > 100 | > 100 |  | 70.8 | 71.5 |  | 82.1 | 75.2 | 7 | 10 |  | > 900 |  | 834 (≈ 324 µg/mL) | 
12 | O=C(/C=C/c1ccc2c(c1)OCO2)c1c2[nH]c3ccccc3c2cc[n+]1Cc1ccccc1.[Br-] | 42.1 | 79 | 82.2 | 6 | 55.3 | 48.2 |  | 55.1 | 45.2 | 7 | 8 |  |  |  |  | 
13 | CCCC[n+]1ccc2c([nH]c3ccccc32)c1C(=O)/C=C/c1cc(OC)c(OC)c(OC)c1.[Br-] | 39.6 | 40.1 | 68.6 |  | 25.1 | 32 |  | 34.4 | 35.6 | 10 | 10 | 12 | 812 | 8 | 806 | 
14 | O=C(N[C@H](CO)[C@H](O)c1ccc([N+](=O)[O-])cc1)C(Cl)Cl [CHLORAMPHENICOL] |  |  |  | 22 |  |  | 32 (≈ 10.3 µg/mL) |  |  | 22 | 20 | 21 | 17 (≈ 5.49 µg/mL) | 22 | 24 (≈ 7.76 µg/mL) | 
15 | COc1cccc2c1C(=O)c1c(O)c3c(c(O)c1C2=O)C[C@@](O)(C(=O)CO)C[C@@H]3O[C@H]1C[C@H](N)[C@H](O)[C@H](C)O1 [DOXORUBICIN] | 3.2 | 10.2 | 21.3 |  | 13.6 | 7.85 |  | 3.59 |  |  |  |  |  |  |  | Active
16 | COc1cc(/C=C/C(=O)c2c3[nH]c4ccccc4c3cc[n+]2Cc2ccccc2)cc(OC)c1OC.[Br-] | 16.1 | 22 | 55.2 | 7 | 20 | 16 |  | 17.2 | 22.1 | 9 | 12 |  |  |  | 726 | Active
17 | COc1ccc(/C=C/C(=O)c2nccc3c2[nH]c2ccccc23)cc1 | > 100 | > 100 | > 100 | 8 | > 100 | > 100 | 885 (≈ 291 µg/mL) | > 100 | > 100 | 12 | 9 | 8 | 733 (≈ 241 µg/mL) |  | 846 (≈ 278 µg/mL) | 
18 | Cc1ccc(/C=C/C(=O)c2nccc3c2[nH]c2ccccc23)cc1 | > 100 | > 100 | > 100 | 12 | > 100 | > 100 | 720 (≈ 225 µg/mL) | > 100 | > 100 | 10 | 10 |  | 820 (≈ 256 µg/mL) |  | 828 (≈ 259 µg/mL) | 
